Values of other authors in patent publication US20060246530A1, “Method and reagent for the specifically identifying and quantifying one or more proteins in a sample” (priority 2002, published 2006).

What was measured:
[1] = stability constant, Zn
[2] = stability constant, Gd
[3] = stability constant
mice = settings: Intravenous LD50-rate in mice
[4] = selectivity factor
[5] = stability constant, Cu

SMILES	Log KZnL [1]	Log KGdL [2]	Log KCal [3]	LD50 (mice) [mmol/kg]	Log Ksel [4]	Log KCuL [5]
O=C(O)CN1CCN(CC(=O)O)CCN(CC(=O)O)CCN(CC(=O)O)CC1 [DOTA, 1,4,7,10-tetraazacyclododecane-1,4,7,10-tetraacetic acid]	21.05	24.6	17.23	11	8.3	22.63
CC(O)CN1CCN(CC(=O)O)CCN(CC(=O)O)CCN(CC(=O)O)CC1 (centres unmarked) [HP-DO3A]	19.37	23.8	14.83	12	6.95	22.84
O=C(O)CN(CCN(CC(=O)O)CC(=O)O)CCN(CC(=O)O)CC(=O)O [DTPA]	18.29	22.46	10.75	5.6	7.04	21.38
O=C(O)CN(CCN(CC(=O)O)CC(=O)O)CC(=O)O [EDTA]	16.5	17.7	10.61	–	4.23	18.78
O=C(O)CN1CCNCCN(CC(=O)O)CCN(CC(=O)O)CC1 [DO3A]	19.26	21.0	11.74	7 to 9	4.13	22.87
